Test results as given in PubChem BioAssay AID489033 (Sanford-Burnham Center for Chemical Genomics, 2010).
Calls of active or inactive are those of the source. No rule for the calls is given here.

tested on: 697B B-cell line, NF-kB luciferase reporter luminescence; experiment: NF-kB reporter inhibition in B cells, dose response, selectivity assay for T-cell antigen receptor NF-kB inhibitors, 697B cells, luminescence (AID 489033)

Q: Which IC50 does the source give for COc1ccccc1-c1nnc2sc(-c3ccc(N(C)C)cc3)nn12 here?
A: > 80 µM (inactive)

Q: For O=C(Nc1ccc(S(=O)(=O)Nc2ccccc2)cc1)c1ccc(CN2CCOCC2)cc1, which IC50 is on record?
A: 46.1 µM (inactive)

Q: COc1ccc(CCNc2cc(N3CCN(C(=O)c4ccccc4F)CC3)ccc2[N+](=O)[O-])cc1OC was tested. Which IC50 did it give?
A: > 80 µM (inactive)

Q: How did the IC50 turn out when O=C(Sc1cccc2cccnc12)c1ccc(F)cc1 was run?
A: 1.03 µM

Q: COc1ccccc1N1CCN(C(=O)C2c3ccccc3Oc3ccccc32)CC1 was tested. Which IC50 did it give?
A: > 80 µM (inactive)

Q: With CCOc1ccc(S(=O)(=O)N2c3ccccc3CC2C)cc1 (stereo not drawn) as the compound, how does the IC50 read?
A: > 80 µM (inactive)

Q: Which IC50 does the source give for COc1ccc(COC(=O)c2cc([N+](=O)[O-])ccc2N2CCOCC2)cc1F here?
A: 37.1 µM (inactive)

Q: For COc1ccc(C[C@H](N)C(=O)N[C@H]2[C@@H](O)[C@H](n3cnc4c(N(C)C)ncnc43)O[C@@H]2CO)cc1, which IC50 is on record?
A: 1.62 µM

Q: How did the IC50 turn out when Cc1noc(C)c1COc1ccc(CC(=O)NCc2ccccc2)cc1 was run?
A: > 80 µM (inactive)

Q: COc1cc(NS(=O)(=O)c2ccc(C)cc2)c2ncccc2c1 was tested. Which IC50 did it give?
A: 1.05 µM

Q: For CS(=O)(=O)c1ccc(Sc2nc3ccccc3s2)c([N+](=O)[O-])c1, which IC50 is on record?
A: 1.11 µM

Q: O=C(Nc1ccc(CSc2ccccc2)cc1)c1ccc(CN2CCOCC2)cc1 was tested. Which IC50 did it give?
A: > 80 µM (inactive)

Q: How did the IC50 turn out when C=CCOC(=O)c1[nH]c2c(c1C)C(=O)CC(c1ccco1)C2 (stereo not drawn) was run?
A: > 80 µM (inactive)

Q: With O=C(N/N=C\c1c(O)ccc2ccccc12)c1cncc(Br)c1 as the compound, how does the IC50 read?
A: > 80 µM (inactive)

Q: CC(=O)NC(c1ccc2ccccc2c1)c1ccc2cccnc2c1O (stereo not drawn) was tested. Which IC50 did it give?
A: > 80 µM (inactive)

Q: With COc1cccc(/C=N/NC(=O)c2[nH]nc3c2CCc2ccccc2-3)c1O as the compound, how does the IC50 read?
A: 61.7 µM (inactive)

Q: COc1ccc(Nc2cc(C)nc(-n3nc(C)cc3C)n2)cc1 was tested. Which IC50 did it give?
A: > 80 µM (inactive)

Q: Cc1ccc2c(c1)C=CC(C#N)N2C(=O)c1ccccc1 (stereo not drawn) was tested. Which IC50 did it give?
A: > 80 µM (inactive)

Q: COc1ccc(N(C(=O)c2ccccc2C)S(=O)(=O)c2cccs2)cc1 was tested. Which IC50 did it give?
A: > 80 µM (inactive)

Q: With CCSc1nc2ccccc2n1C(=O)/C=C\c1ccc(OC)c(OC)c1 as the compound, how does the IC50 read?
A: 4.67 µM

Q: COc1ccc(Nc2nc3cc(C)ccc3cc2C#N)c(OC)c1 was tested. Which IC50 did it give?
A: > 80 µM (inactive)

Q: How did the IC50 turn out when Cc1cc(C)cc(C(=O)N2CC(=O)Nc3ccccc32)c1 was run?
A: > 80 µM (inactive)

Q: Which IC50 does the source give for CC1(C)Cc2nc3sc4c(=O)n(CC(=O)NCc5ccccc5)cnc4c3cc2CO1 here?
A: > 80 µM (inactive)

Q: Which IC50 does the source give for COc1ccc(S(=O)(=O)N2N=C(C)Oc3ccccc3C2=O)cc1 here?
A: > 80 µM (inactive)

Q: CCN1/C(=C/c2ccc3ccccc3[n+]2CC)C=Cc2ccccc21 was tested. Which IC50 did it give?
A: 3.57 µM

Q: With O=C(N/N=C/c1c(O)ccc2ccccc12)c1cccc(C(F)(F)F)c1 as the compound, how does the IC50 read?
A: 18.6 µM

Q: With CNC[C@@H](CC1CCCCC1)NC[C@H](CC(C)C)NCCc1cccc(C(F)(F)F)c1 as the compound, how does the IC50 read?
A: 4.88 µM

Q: Which IC50 does the source give for Cc1cccc(N=Nc2ccc(O)c3ncccc23)c1 here?
A: 1.1 µM

Q: Which IC50 does the source give for COc1ccccc1C1=NOC(COc2ccc3c(C)cc(=O)oc3c2)C1 (stereo not drawn) here?
A: > 80 µM (inactive)

Q: CC(C)Oc1ccccc1C1CC(=O)Nc2cc3c(cc21)OCO3 (stereo not drawn) was tested. Which IC50 did it give?
A: > 80 µM (inactive)

Q: CC1CCN(c2c(NCc3ccc(C(=O)N4CCc5ccccc54)cc3)c(=O)c2=O)CC1 was tested. Which IC50 did it give?
A: > 80 µM (inactive)

Q: Which IC50 does the source give for CCCN1C=CC(=C2C(=O)c3ccccc3C2=O)C=C1 here?
A: < 0.16 µM

Q: Which IC50 does the source give for CCC(=O)NC(c1ccc(C)cc1)c1ccc2cccnc2c1O (stereo not drawn) here?
A: > 80 µM (inactive)

Q: For Cn1ncc2c(N3CCN(c4ccc(Cl)c(Cl)c4)CC3)ncnc21, which IC50 is on record?
A: > 80 µM (inactive)

Q: O=C(NN=Cc1c(O)ccc2ccccc12)c1ccc2c(c1)OCO2 was tested. Which IC50 did it give?
A: > 80 µM (inactive)

Q: How did the IC50 turn out when Cc1noc(C)c1COc1ccc(C(=O)NNC(=O)c2ccccc2F)cc1 was run?
A: > 80 µM (inactive)

Q: For CC(C)Nc1ccc(C(CC(N)=O)NC(=O)c2ccc(Br)cc2)cc1[N+](=O)[O-] (stereo not drawn), which IC50 is on record?
A: > 80 µM (inactive)

Q: Which IC50 does the source give for CCC(C)C(=O)N[C@@H](c1ccccc1)[C@@H](O)C(=O)O[C@H]1C[C@@]2(O)[C@@H](OC(=O)c3ccccc3)C3[C@](C)(C(=O)[C@H](OC(C)=O)C(=C1C)C2(C)C)[C@@H](O)C[C@H]1OC[C@@]31OC(C)=O (stereo partly drawn) here?
A: > 80 µM (inactive)

Q: How did the IC50 turn out when CCCCCCCCC[n+]1cccc2c3ccccc3ccc21 was run?
A: 1.98 µM

Q: COC(=O)c1[nH]c2c(c1C)C(=O)CC(c1cccs1)C2 (stereo not drawn) was tested. Which IC50 did it give?
A: > 80 µM (inactive)

Q: Which IC50 does the source give for CCOC(=O)Nc1nc(-c2ccccc2)c(C(=O)c2ccc(Cl)cc2)s1 here?
A: > 80 µM (inactive)

Q: Which IC50 does the source give for Cc1cccc(N2CCN(C(=O)c3ccc(S(=O)(=O)N(C)c4ccccc4)cc3)CC2)c1C here?
A: > 80 µM (inactive)

Q: O=C1c2cccc3cc([N+](=O)[O-])cc(c23)C(=O)N1CCN1CCCC1 was tested. Which IC50 did it give?
A: 18.7 µM

Q: CC(=O)Nc1ccc(S(=O)(=O)N2CCSc3ccccc32)cc1 was tested. Which IC50 did it give?
A: > 80 µM (inactive)

Q: Which IC50 does the source give for C=C1C(=O)O[C@H]2C[C@@H](C)[C@@H]3C=CC(=O)[C@@]3(C)C[C@H]12 here?
A: 1.25 µM

Q: For COC(=O)c1cn(NC(=O)c2cc([N+](=O)[O-])ccc2F)c(=O)c2ccccc12, which IC50 is on record?
A: 2.43 µM

Q: How did the IC50 turn out when Cn1c2c(c(=O)n(C)c1=O)C(C(F)(F)F)(C(F)(F)F)N=C(c1ccc(Cl)cc1)N2 was run?
A: 1.93 µM

Q: How did the IC50 turn out when CCN1/C(=C/C(C)=C/c2sc3ccccc3[n+]2CC)Sc2ccccc21 was run?
A: 2.42 µM
